Results taken from article PMC7324419 (Human Cell, 2020).

Assays:
[1] = system: HT29 cell line (colorectal adenocarcinoma from human); format: cell-based; details: read-out: IC50 [µM] against HT29
[2] = system: A549 cell line (lung carcinoma from human); format: cell-based; details: read-out: IC50 [µM] against A549
[3] = system: EAhy926 cell line (the human umbilical vein, somatic cell hybrid); format: cell-based; details: read-out: IC50 [µM] against EA.hy9263
[4] = biological target: hyaluronidase from bovine testes Type I-S (Bos taurus, UniProt Q2YDK3); format: biochemical; details: read-out: IC50 (µM) hyaluronidase inhibition
hyaluronidase from bovine testes Type I-S, sequence (Q2YDK3 36-553 limits assumed): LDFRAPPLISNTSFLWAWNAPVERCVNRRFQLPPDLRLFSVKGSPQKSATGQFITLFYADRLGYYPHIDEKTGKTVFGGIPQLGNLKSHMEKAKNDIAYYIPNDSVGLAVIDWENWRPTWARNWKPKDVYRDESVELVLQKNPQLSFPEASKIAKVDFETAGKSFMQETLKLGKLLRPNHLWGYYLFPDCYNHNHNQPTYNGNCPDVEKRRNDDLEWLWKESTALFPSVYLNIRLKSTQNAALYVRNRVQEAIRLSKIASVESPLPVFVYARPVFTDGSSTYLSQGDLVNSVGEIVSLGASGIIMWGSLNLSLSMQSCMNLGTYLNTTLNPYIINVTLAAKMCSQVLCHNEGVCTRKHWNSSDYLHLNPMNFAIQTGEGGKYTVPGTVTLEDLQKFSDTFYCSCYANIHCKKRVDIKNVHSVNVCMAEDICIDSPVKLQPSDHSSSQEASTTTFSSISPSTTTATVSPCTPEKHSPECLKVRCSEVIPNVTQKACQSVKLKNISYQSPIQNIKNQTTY

Row | Compound | IC50 [1] | IC50 [2] | IC50 [3] | IC50 [4]
1 | O=C(NCCNc1c2c(nc3ccccc13)CCCC2)c1ccccc1F [Compound 1] | 68.4 µM | 106 µM |  | 
2 | O=C(NCCCNc1c2c(nc3ccccc13)CCCC2)c1ccccc1F [Compound 2] | 50.2 µM | 148 µM |  | 
3 | O=C(NCCCNc1c2c(nc3ccccc13)CCCC2)c1cccc(F)c1 [Compound 5] | 44 µM | 118 µM |  | 
4 | COc1cc([C@@H]2c3cc4c(cc3[C@@H](O[C@@H]3O[C@@H]5CO[C@@H](C)O[C@H]5[C@H](O)[C@H]3O)[C@H]3COC(=O)[C@H]23)OCO4)cc(OC)c1O [Compound C1, Etoposide] | 654 µM | 451 µM | 155 µM | 
5 | O=c1[nH]cc(F)c(=O)[nH]1 [Compound C2, 5-fluorouracil] | 1630 µM | > 1800 µM | > 1800 µM | 
6 | heparin [Compound C3] |  |  |  | 56.4 µM
